Source: PMC9841531, “Indole Derivatives as New Structural Class of Potent and Antiproliferative Inhibitors of Monocarboxylate Transporter 1 (MCT1; SLC16A1)” (Journal of Medicinal Chemistry, 2022)

Test system: A-549 cells
Experiment: cell cycle distribution analysis, PI flow cytometry
Format: cell-based
Details: 5 μM, 24 h
Protocol: The antineoplastic agent 33 (5 μM) was used as a reference. […] Compound 24 caused a disruption of the cell cycle of A-549 cancer cells, indicated by a shift from the predominant G0/G1 phase (Figure 8A) to the apoptotic sub-G1 phase as well as the G2/M phase (Figure 8B). A similar G2/M arrest could be observed for reference compound 33 (Figure 8C); however, MCT1 inhibitor 24 led to a larger fraction of cells into the sub-G1 phase, indicating induced apoptosis. This experiment discovered that compound 24 inhibits cell proliferation, causing cell cycle arrest and, eventually, apoptosis. To confirm our findings, we conducted an apoptosis assay using compound 24.
A standard PI staining procedure was used as described earlier[44]−[46] to determine the effect of compounds 24 and 33 on cell cycle progression, followed by flow cytometry analysis (FACS Aria SORP and FACS Aria Fusion, BD Biosciences, Franklin Lakes, NJ). In brief, A-549 cells were seeded onto a 6-well plate (250,000 cells/well) and incubated for 24 h at 37 °C under a 5% CO2-humidified atmosphere before being observed under a microscope. The cells were treated with compound 24 (5 μM) or 33 (5 μM) and further incubated for 24 h at 37 °C under a 5% CO2-humidified atmosphere. Then, the cells were harvested and washed twice with cold PBS (Genetix Biotech Asia, New Delhi, India) before being fixed overnight in ice-cold 70% (v/v) ethanol at 4 °C. The cells were again washed two times with PBS and subsequently resuspended with RNase (100 μg/mL; HiMedia, Mumbai, India) and their DNA was stained with PI (40 μg/mL; Sigma-Aldrich, Mumbai, India) before being incubated in the dark for 10 min. The DNA content was measured at the Indian Institute of Technology Bombay (IITB, Mumbai, India) by applying flow cytometry.

Structure (SMILES): COC(=O)/C(C#N)=C/c1cn(CC(=O)Nc2ccc(OC)cc2)c2ccccc12 [Compound 24, Methyl-2-cyano-3-(1-(2-((4-methoxyphenyl)amino)-2-oxoethyl)-1H-indol-3-yl) Acrylate]
- cells in G0/G1 phase: 38.1%
- cells in G2/M phase: 22.3%
- cells in S phase: 18.0%
- cells in Sub-G1 phase: 20.6%
